Read-outs that look alike come from different tables or passages of the source.
How the values were obtained:
Apisum RDL2b var 1 = test: Antagonistic actions of neonicotinoids on GABA-induced currents, two-electrode voltage-clamp in X. laevis oocytes; type: cell-based, Acyrthosiphon pisum
Protocol: (§1) Functional studies of Apisum RDL1ad, Apisum RDL1bd and Apisum RDL2b variant 1 were performed using the X. laevis expression system and two-electrode voltage-clamp electrophysiology. Stage V and VI X. laevis oocytes were harvested and rinsed with Ca^2+ free solution (82 mM NaCl, 2 mM KCl, 2 mM MgCl2, 5 mM HEPES, pH 7.4), before defolliculating with 1 mg/mL type IA collagenase (Sigma, St. Louis, MO, USA) in Ca^2+ free solution. Defolliculated oocytes were injected with 2.3 ng (23 nL) Apisum Rdl plasmid DNA into the nucleus of the oocyte and stored in standard Barth’s solution (supplemented with 50 µg/mL neomycin and 10 µg/mL penicillin/streptomycin) at 17.5 °C.
Oocytes 1–7 days post-injection were placed in a recording chamber and clamped at −60 mV with 3 M KCl filled borosilicate glass electrodes (resistance 0.5–5 MΩ) and an Oocyte Clamp OC-725C amplifier (Warner Instruments, CT, USA). Responses were recorded on a flatbed chart recorder (Kipp & Zonen BD-11E, Delft, The Netherlands). Oocytes were perfused with standard oocyte saline (SOS; 100 mM NaCl, 2 mM KCl, 1.8 mM CaCl2, 1 mM MgCl2, 5 mM HEPES, pH 7.6) at a flow rate of 10 mL/min. Oocytes were selected for experiments if stable after three or more consecutive challenges of GABA at EC50 concentration. […] Curves were calculated by normalising the GABA current responses to maximal responses induced by GABA before and after application. […]

Apisum RDL1bd [1] = biological target: T1, Apisum RDL1bd (Acyrthosiphon pisum, UniProt A0A385J708); test: as above; type: cell-based; conditions: for effect on responses induced by GABA: 100 μM neonicotinoid
T1 sequence (A0A385J708 33-567): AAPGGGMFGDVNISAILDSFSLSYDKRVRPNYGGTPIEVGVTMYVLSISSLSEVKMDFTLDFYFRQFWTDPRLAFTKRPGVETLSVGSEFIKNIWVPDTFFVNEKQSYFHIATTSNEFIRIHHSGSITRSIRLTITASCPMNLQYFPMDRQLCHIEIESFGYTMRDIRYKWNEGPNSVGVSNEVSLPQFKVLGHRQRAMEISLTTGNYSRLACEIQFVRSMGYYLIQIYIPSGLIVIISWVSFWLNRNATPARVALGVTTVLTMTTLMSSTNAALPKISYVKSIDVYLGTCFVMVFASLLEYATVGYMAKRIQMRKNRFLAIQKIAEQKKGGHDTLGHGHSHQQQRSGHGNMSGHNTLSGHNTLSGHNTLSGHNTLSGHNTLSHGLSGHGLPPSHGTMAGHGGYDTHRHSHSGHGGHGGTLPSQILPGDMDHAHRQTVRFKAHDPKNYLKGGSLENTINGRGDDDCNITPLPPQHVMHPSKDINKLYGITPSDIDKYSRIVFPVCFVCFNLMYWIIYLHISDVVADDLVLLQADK
Protocol: as §1
(§2) Oocytes 1–7 days post-injection were placed in a recording chamber and clamped at −60 mV with 3 M KCl filled borosilicate glass electrodes (resistance 0.5–5 MΩ) and an Oocyte Clamp OC-725C amplifier (Warner Instruments, CT, USA). Responses were recorded on a flatbed chart recorder (Kipp & Zonen BD-11E, Delft, The Netherlands). Oocytes were perfused with standard oocyte saline (SOS; 100 mM NaCl, 2 mM KCl, 1.8 mM CaCl2, 1 mM MgCl2, 5 mM HEPES, pH 7.6) at a flow rate of 10 mL/min. Oocytes were selected for experiments if stable after three or more consecutive challenges of GABA at EC50 concentration. The GABA EC50 concentration was determined using GABA concentration response curves, which were generated by challenging oocytes to increasing concentrations of GABA in SOS, with 3 min between challenges. Curves were calculated by normalising the GABA current responses to maximal responses induced by GABA before and after application.
(§3) Insecticides were initially diluted in dimethylsulphoxide (DMSO), before diluting to final concentrations in SOS.
(§4) For measuring the antagonistic actions of neonicotinoids, oocytes were initially incubated with a perfusion of the neonicotinoid in SOS for 6 min, before challenging with a combination of neonicotinoid and either the respective EC50 GABA concentration or 1 mM GABA.

A. mellifera RDL = tested on: A. mellifera RDL; set-up: method as in PMID 27288983; conditions: 100 μM; expressed in Xenopus oocytes; cited from earlier work
An. gambiae RDL = tested on: An. gambiae RDL; set-up: method as in PMID 26296809; conditions: 100 μM; expressed in Xenopus oocytes; cited from earlier work
[2] = tested on: cultured honey bee Kenyon cells; set-up: method as in PMID 11872245; conditions: cited from earlier work
Apisum RDL1ad [3] = biological target: T2, Apisum RDL1ad (Acyrthosiphon pisum, UniProt A0A385J708); test: Antagonistic actions of neonicotinoids on GABA-induced currents, two-electrode voltage-clamp in X. laevis oocytes; type: cell-based; conditions: for activity at 100 µM: read-out: % of GABA Response with 100 μM neonicotinoid
T2 sequence (A0A385J708 33-567): T1 sequence (A0A385J708 33-567)
Protocol: as §1, §2, §3, §4

Apisum RDL1ad [4] = biological target: T2, Apisum RDL1ad; test: Fipronil inhibition of GABA EC50 induced currents, two-electrode voltage-clamp in X. laevis oocytes; type: cell-based; conditions: GABA at EC50 (20 μM); 3 min pre-incubation; mean ± SEM
Protocol: as §1, §2
(§5) Insecticides were initially diluted in dimethylsulphoxide (DMSO), before diluting to final concentrations in SOS. […]
(§6) Data are presented as mean ± SEM of individual oocytes from three or more separate frogs. […] Statistical significance was determined as p < 0.05, performed using one-way ANOVA (Graphpad Software, CA, USA).

Apisum RDL2b variant 1 [5] = biological target: T3, Apisum RDL2b variant 1 (Acyrthosiphon pisum, UniProt A0A385J709); test: as above; type: cell-based; conditions: GABA at EC50 (30 μM); 3 min pre-incubation; mean ± SEM
Protocol: as §1, §2, §5, §6

Apisum RDL1bd [6] = biological target: T1, Apisum RDL1bd; test: as above; type: cell-based; conditions: GABA at EC50 (50 μM); 3 min pre-incubation; mean ± SEM
Protocol: as §1, §2, §5, §6

Apisum RDL1ad [7] = biological target: T2, Apisum RDL1ad; test: GABA concentration response, two-electrode voltage-clamp in X. laevis oocytes; type: cell-based
Protocol: as §1, §2
(§7) Data are presented as mean ± SEM of individual oocytes from three or more separate frogs. The concentration of GABA required to evoke 50% of the maximum response (EC50), the concentration of fipronil required to inhibit 50% of the maximal GABA response (IC50), and the Hill coefficient (nH) were determined by non-linear regression using Graphpad Prism 5 (Graphpad Software, CA, USA). Statistical significance was determined as p < 0.05, performed using one-way ANOVA (Graphpad Software, CA, USA).

Apisum RDL2b variant 1 [8] = biological target: T3, Apisum RDL2b variant 1; test: as above; type: cell-based
Protocol: as §1, §2, §7

Apisum RDL1bd [9] = biological target: T1, Apisum RDL1bd; test: as above; type: cell-based
Protocol: as §1, §2, §7

[10] = 100 μM neonicotinoid, GABA at 1 mM
[11] = 100 μM neonicotinoid, GABA at EC50 concentration
[12] = initial 250 μM GABA response, eggs clamped at −60 mV, mean ± SEM

In the case of N#C/N=C1\SCCN1Cc1ccc(Cl)nc1 [THI, thiacloprid], the “% of GABA Response with 100 μM neonicotinoid” value (shortened to “% of GABA Response”) (Apisum RDL2b var 1; GABA at EC50) is reported as 62 ± 2%, the “% of GABA Response” value (Apisum RDL2b var 1; GABA at EC50, listed as thiacloprid) is reported as 62% and the “% of GABA Response” value (Apisum RDL1bd [1]; GABA at EC50, 100 µM) is reported as 55 ± 7%. The “% of GABA Response” value (Apisum RDL1bd [1]; GABA at EC50, listed as thiacloprid, 100 µM) was 55%.
For O=[N+]([O-])NC1=NCCN1Cc1ccc(Cl)nc1 [IMI, imidacloprid], the “action on RDL” value (A. mellifera RDL) is given as “acted as an antagonist”, the “action on RDL” value (An. gambiae RDL) is given as “acted as an antagonist” and the “effect on GABA-induced responses” value [2] is given as “reduce GABA-induced responses”. The “effect on responses induced by GABA” value (Apisum RDL1ad [3]; [10]) was “no detectable effect”, the “effect on responses induced by GABA” value (Apisum RDL1ad [3]; [11]) was “no detectable effect” and the activity at 100 µM (Apisum RDL1ad [3]; GABA at EC50, 100 μM neonicotinoid) was 100%. For the same compound, the “effect on responses induced by GABA” value (Apisum RDL1bd [1]; GABA at 1 mM) was “no detectable effect”, the “effect on responses induced by GABA” value (Apisum RDL1bd [1]; GABA at EC50 concentration) was “no detectable effect” and the “% of GABA Response” value (Apisum RDL1bd [1]; GABA at EC50) was 100%.
In the case of N#Cc1nn(-c2c(Cl)cc(C(F)(F)F)cc2Cl)c(N)c1[S+]([O-])C(F)(F)F (stereo not shown) [Fipronil, fipronil], the IC50 (Apisum RDL1ad [4]) is reported as 0.64 ± 0.15 µM, the IC50 (Apisum RDL2b variant 1 [5]) is reported as 0.72 ± 0.19 µM and the IC50 (Apisum RDL1bd [6]) is reported as 0.18 ± 0.06 µM.
With CN/C(=N\[N+](=O)[O-])NCc1cnc(Cl)s1 [CLO, clothianidin] the “effect on responses induced by GABA” value (Apisum RDL1ad [3]; [10]) was “no antagonistic actions”, the “effect on responses induced by GABA” value (Apisum RDL1ad [3]; [11]) was “no antagonistic actions” and the activity at 100 µM (Apisum RDL1ad [3]) was 100%. For the same compound, the “effect on responses induced by GABA” value (Apisum RDL1bd [1]; GABA at 1 mM) was “no antagonistic actions”, the “effect on responses induced by GABA” value (Apisum RDL1bd [1]; GABA at EC50 concentration) was “no antagonistic actions” and the “% of GABA Response” value (Apisum RDL1bd [1]; GABA at EC50) was 100%.
In the case of NCCCC(=O)O [GABA, γ-aminobutyric acid], the “Imax (maximum amplitude)” value (Apisum RDL1ad [7]; [12]) is reported as 1.6 ± 0.6 μA, the EC50 (Apisum RDL1ad [7]; mean ± SEM of 4-5 oocytes) is reported as 23 ± 1.7 µM and the “GABA nH (hill coefficient)” value (Apisum RDL1ad [7]; mean ± SEM of 4-5 oocytes) is reported as 1.6 ± 0.1. The “Imax (maximum amplitude)” value (Apisum RDL2b variant 1 [8]; [12]) was 1.4 ± 1.5 μA, the EC50 (Apisum RDL2b variant 1 [8]; mean ± SEM of 4-5 oocytes) was 28 ± 5.4 µM and the “GABA nH (hill coefficient)” value (Apisum RDL2b variant 1 [8]; mean ± SEM of 4-5 oocytes) was 1.0 ± 0.1. The “Imax (maximum amplitude)” value (Apisum RDL1bd [9]; [12]) was 1.4 ± 1.3 μA, the EC50 (Apisum RDL1bd [9]; mean ± SEM of 4-5 oocytes) was 51 ± 9.2 µM and the “GABA nH (hill coefficient)” value (Apisum RDL1bd [9]; mean ± SEM of 4-5 oocytes) was 2.0 ± 0.3.

Reference: PMC6121307, “Cloning and Functional Characterisation of the Duplicated RDL Subunits from the Pea Aphid, Acyrthosiphon pisum” (International Journal of Molecular Sciences, 2018)
